Reference: patent US7378428B2, “Nitrogen-containing bicyclic compounds and drugs containing the same as the active ingredient” (Ono Pharmaceutical Co., Ltd., priority 2002, dated 2008)

Target: T1, Human CB2 receptors (Homo sapiens, UniProt P34972)
T1 construct: expressed in transfected cells; host or cells: CHO cells
Assay: In vitro signaling assay: inhibition of forskolin-induced cAMP production in human CB2 receptor expressing CHO cells
Assay type: cell-based
Details: 10 μM forskolin, 15 minutes at room temperature
Protocol: Human CB2 receptors expressed CHO cells were used for the assays. Cells were dispersed seeded in 96-well plates in a density of 5×10^4 cells/well, and were subjected to experiment the next day. After removing the culture media 1 mM isobutylmethylxanthine (IBMX) solution was added, and cells were incubated for 10 minutes at room temperature. Next, a mixture of 10 μM forskolin and the compound of the present invention was added. After additional incubation for 15 minutes at room temperature, the culture supernatant was discarded and 200 μl of lysis reagent (attached to a cAMP EIA) was added. The amounts of cAMP of the lysate were determined by a cAMP EIA kit (Amersham) under conditions of the forskolin-induced cAMP production. The compound of the present invention was dissolved in DMSO and the solution was diluted to adjust the final concentration of DMSO to 0.1%. IC50 values were calculated from the inhibitory ratio of the compound of the present invention toward the amount of the forskolin-induced cAMP production. By the same experiment using CHO cells, it was confirmed that this inhibitory effect toward cAMP production by the compound was mediated via the human CB2 receptors.

T1 sequence (P34972 whole entry): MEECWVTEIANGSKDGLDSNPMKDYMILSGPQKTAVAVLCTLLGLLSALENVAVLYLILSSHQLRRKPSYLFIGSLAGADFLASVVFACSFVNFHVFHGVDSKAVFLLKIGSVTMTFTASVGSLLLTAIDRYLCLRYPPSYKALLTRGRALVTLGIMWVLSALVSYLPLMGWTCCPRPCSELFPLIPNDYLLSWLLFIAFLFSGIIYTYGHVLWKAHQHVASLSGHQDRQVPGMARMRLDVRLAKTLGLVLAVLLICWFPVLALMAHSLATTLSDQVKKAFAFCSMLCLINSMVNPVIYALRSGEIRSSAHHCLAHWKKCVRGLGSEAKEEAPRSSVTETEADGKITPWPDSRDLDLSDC

`CC1(C)Cc2cc(C#N)c(C#N)cc2/C(=C/C(=O)C2CCOCC2)N1` [46(3), (Z)-2-(6,7-dicyano-3,3-dimethyl-3,4-dihydro-(2H)-isoquinolin-1-ylidene)-1-(tetrahydropyran-4-yl)ethan-1-one] and `Cc1cc2c(cc1O)/C(=C/C(=O)C1CCCCCC1)NC(C)(C)C2` [47(6), (Z)-2-(7-hydroxy-3,3,6-trimethyl-3,4-dihydro-(2H)-isoquinolin-1-ylidene)-1-cycloheptylethan-1-one] are within 1.5-fold of each other in IC50: 0.0053 µM for the first, 0.0041 µM for the second.

Going from `Cc1cc2c(cc1O)/C(=C/C(=O)C13CC4CC(CC(C4)C1)C3)NC(C)(C)C2` [47(4), (Z)-2-(7-hydroxy-3,3,6-trimethyl-3,4-dihydro-(2H)-isoquinolin-1-ylidene)-1-(adamantan-1-yl)ethan-1-one] to `COc1ccc2c(c1)C(C)(C)N/C2=C\C(=O)c1ccccc1OC` [57(2), (Z)-2-(5-methoxy-3,3-dimethyl-2,3-dihydro-(2H)-isoindol-1-ylidene)-1-(2-methoxyphenyl)ethan-1-one], the IC50 falls from 0.0052 µM to 0.0033 µM (1.6-fold).

Target: T2, PDE7 (Homo sapiens, UniProt Q13946)
Assay: not given
Details: J. Biol. Chem., 268, 12925 (1993); cited from earlier work

T2 sequence (Q13946 whole entry): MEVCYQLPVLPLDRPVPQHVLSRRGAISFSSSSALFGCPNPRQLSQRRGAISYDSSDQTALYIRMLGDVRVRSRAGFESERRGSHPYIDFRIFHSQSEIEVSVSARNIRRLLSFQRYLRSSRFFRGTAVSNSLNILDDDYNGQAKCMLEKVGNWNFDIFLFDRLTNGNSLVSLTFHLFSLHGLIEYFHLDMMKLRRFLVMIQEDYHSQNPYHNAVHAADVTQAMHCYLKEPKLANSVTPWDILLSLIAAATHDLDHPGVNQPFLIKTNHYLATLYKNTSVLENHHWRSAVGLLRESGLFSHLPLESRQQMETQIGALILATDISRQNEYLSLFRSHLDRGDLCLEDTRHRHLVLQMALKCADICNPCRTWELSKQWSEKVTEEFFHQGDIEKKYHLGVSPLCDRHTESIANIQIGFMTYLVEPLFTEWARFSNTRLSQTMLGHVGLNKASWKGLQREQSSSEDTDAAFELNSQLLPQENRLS

In the case of `COc1ccc(C2CNC(=O)C2)cc1OC1CCCC1` (stereo not shown) [rolipram], the “inhibition of PDE7” value is given as “not inhibited”.

Target: T2, PDE7
Assay: In vitro enzyme assay: PDE7 inhibitory activity
Assay type: biochemical
Set-up: endogenous in cells; host or cells: HuT78 cells; soluble fraction separated on a MonoQ anion-exchange column
Details: PDE7 fraction from HuT78 cells, 30 minutes at room temperature
Protocol: HuT78 cells (derived from human T cell lymphocyte) were cultured in PRMI1640 medium containing 10% bovine fetus serum. 2 L of cells (approximately 8×10^8 cells) were collected, and they were homogenized in a buffer [50 mmol/l tris hydrochloric acid buffer containing 1 mmol/l dithiothreitol (DTT), 2 mmol/l ethylenediamine tetraacetate disodium (EDTA-2Na). After centrifugation (50,000 rpm, 4° C., 1 hour), the supernatant was collected, and filtered over 0.22 μm filter and the filtrate was fractionated by column chromatography on MonoQ (Pharmacia, hard negative ion exchange column) using the filtrate as soluble portion. The PDE activity of the fraction eluted by the concentration gradient of NaCl of 0-0.8 mol/L was measured using 1 μmol/l of cAMP as a substrate. Fractions where PDE activity is not inhibited by 10 μmol/l of rolipram ([…]) are collected. As to the PDE activity of these fractions, substrate-specificity against cAMP and Michaelis-Menten constant were measured and sensitivity to rolipram was confirmed. Then the fractions which show specificity and high affinity to cAMP which are non-sensitive fractions to rolipram were identified as PDE7. The fractions were used as an enzyme liquor for the measurement of PDE inhibitory activity.
PDE7 inhibitory activity of the compound of the present invention of was evaluated by the following method. 70 μl of diluted enzyme solution, 10 μl of the solution of the compound of the present invention (10% in DMSO), 10 μl of reaction buffer solution [50 mmol/l MgCl2, 1 mg/ml bovine serum albumin, 200 mmol/l tris hydrochloric acid buffer (pH 8.0) containing 40 mmol/l 2-mercaptoethanol] in 96 well plate and it was incubated for 30 minutes at room temperature. It was microwaved for 2.5 minutes to terminate the reaction. It was centrifuged (2,000 rpm for 1 minute) and thereto was added 10 μl of 1 mg/ml snake venom (Sigma, cat. V7000) and it was incubated for 30 minutes at room temperature. The […] (50 μl) was applied to alumina column (100 μl). Purified ^3H-adenosine was eluted with 0.005N hydrochloric acid (80 μl) and its radioactivity of the elute was measured.
PDE7 inhibitory activity of the present invention was evaluated by the activity inhibitory percentage calculated from the following equation. Activity inhibitory percentage (%)=(1-radioactivity in the presence of the compound of the present invention/radioactivity in the absence of the compound of the present invention)×100

Going from `COc1ccc2c(c1)/C(=C/C(=O)c1ccc(C#N)cc1)NC(C)(C)C2` [11(35), (Z)-2-(7-methoxy-3,3-dimethyl-3,4-dihydro-(2H)-isoquinolin-1-ylidene)-1-(4-cyanophenyl)ethan-1-one] to `CNc1ccc2c(c1)/C(=C/C(=O)c1ccc(C#N)cc1)NC(C)(C)C2` [11(162), (Z)-2-(7-methylamino-3,3-dimethyl-3,4-dihydro-(2H)-isoquinolin-1-ylidene)-1-(4-cyanophenyl)ethan-1-one], the IC50 rises from 0.15 µM to 0.37 µM (2.5-fold). The first is the more potent here.

`COc1ccccc1C(=O)/C=C1\NC(C)(C)Cc2ccc(Cl)cc21` [11(43), (Z)-2-(7-chloro-3,3-dimethyl-3,4-dihydro-(2H)-isoquinolin-1-ylidene)-1-(2-methoxyphenyl)ethan-1-one] and `COc1ccccc1C(=O)/C=C1\NC(C)(C)Cc2cc(Cl)ccc21` [12(15), (Z)-2-(6-chloro-3,3-dimethyl-3,4-dihydro-(2H)-isoquinolin-1-ylidene)-1-(2-methoxyphenyl)ethan-1-one] are within 1.5-fold of each other in IC50: 0.97 µM for the first, 1.1 µM for the second.

First: CC1(C)Cc2ccc(Cl)cc2/C(=C/C(=O)C23CC4CC(CC(C4)C2)C3)N1 [11(79), (Z)-2-(7-chloro-3,3-dimethyl-3,4-dihydro-(2H)-isoquinolin-1-ylidene)-1-(adamantan-1-yl)ethan-1-one]
Second: COc1ccc2c(c1)CC(C)(C)N/C2=C\C(=O)C1CCCCC1 [12(7), (Z)-2-(6-methoxy-3,3-dimethyl-3,4-dihydro-(2H)-isoquinolin-1-ylidene)-1-cyclohexylethan-1-one]
The IC50 of the first is 2.8-fold higher: 0.76 µM for the first, 0.27 µM for the second. The second is the more potent here.

`COc1ccc2c(c1)/C(=C/C(=O)c1ccc(N)cc1)NC2(C)C` [Example 58, (Z)-2-(6-methoxy-3,3-dimethyl-2,3-dihydro-(2H)-isoindol-1-ylidene)-1-(4-aminophenyl)ethan-1-one] and `COc1ccc2c(c1)/C(=C/C(=O)c1ccc(NC(N)=O)cc1)NC(C)(C)C2` [Example 73, (Z)-2-(7-methoxy-3,3-dimethyl-3,4-dihydro-(2H)-isoquinolin-1-ylidene)-1-(4-((aminocarbonyl)amino)phenyl)ethan-1-one] are within 1.5-fold of each other in IC50: 0.023 µM for the first, 0.027 µM for the second.
